Test results taken from ChEMBL document CHEMBL1944637, “Asymmetric synthesis and cytotoxicity of (-)-saframycin A analogues” (Eur J Med Chem, 2012).

Columns and labels:
KB = assay: Cytotoxicity against human KB cells assessed as cell viability after 72 hrs by MTT assay; type: functional, cell-based
A549 [1] = assay: Cytotoxicity against human A549 cells assessed as cell viability after 72 hrs by MTT assay; type: functional, cell-based; details: A549, 72 h
HCT-8 = assay: Cytotoxicity against human HCT8 cells assessed as cell viability after 72 hrs by MTT assay; type: functional, cell-based; details: HCT-8, 72 h
[2] = Cytotoxicity against human BGC803 cells assessed as cell viability after 72 hrs by MTT assay; type: functional, cell-based; details: BGC803, 72 h
KETR3 = assay: Cytotoxicity against human Ketr3 cells assessed as cell viability after 72 hrs by MTT assay; type: functional, cell-based; details: KETR3, 72 h
A2780 = assay: Cytotoxicity against human A2780 cells assessed as cell viability after 72 hrs by MTT assay; type: functional, cell-based; details: A2780, 72 h
MCF7 = assay: Cytotoxicity against human MCF7 cells assessed as cell viability after 72 hrs by MTT assay; type: functional, cell-based; details: MCF7, 72 h
HeLa = assay: Cytotoxicity against human HeLa cells assessed as cell viability after 72 hrs by MTT assay; type: functional, cell-based
[3] = Cytotoxicity against human HELF cells assessed as cell viability after 72 hrs by MTT assay; type: functional, cell-based
Bel-7402 = assay: Cytotoxicity against human Bel7402 cells assessed as cell viability after 72 hrs by MTT assay; type: functional, cell-based; details: Bel-7402, 72 h
A549 [4] = assay: Ratio of Saframycin A IC50 to compound IC50 for human A549 cells; type: functional

| SMILES | IC50 (KB) [µM] | IC50 (A549 [1]) [µM] | IC50 (HCT-8) [µM] | IC50 [2] [µM] | IC50 (KETR3) [µM] | IC50 (A2780) [µM] | IC50 (MCF7) [µM] | IC50 (HeLa) [µM] | IC50 [3] [µM] | IC50 (Bel-7402) [µM] | Ratio IC50 (A549 [4]) |
| --- | --- | --- | --- | --- | --- | --- | --- | --- | --- | --- | --- |
| COC1=C(C)C(=O)C2=C(C1=O)[C@@H]1[C@@H]3CC4=C(C(=O)C(OC)=C(C)C4=O)[C@H](CNC(=O)c4cccc(C(F)(F)F)c4)N3[C@@H](C#N)[C@H](C2)N1C | 0.0539 | > 0.1 | > 0.1 | 0.0585 | 0.0306 | 0.0471 | 0.0261 | 0.0432 | 0.0257 | 0.021 |  |
| COC1=C(C)C(=O)C2=C(C1=O)[C@@H]1[C@@H]3CC4=C(C(=O)C(OC)=C(C)C4=O)[C@H](CNC(=O)c4ccc5c(c4)OCO5)N3[C@@H](C#N)[C@H](C2)N1C | 0.00394 | 0.069 | 0.0211 | 0.02 | 0.00688 | 0.00511 | 0.00479 | 0.00334 | 0.00218 | 0.00202 |  |
| COC1=C(C)C(=O)C2=C(C1=O)[C@@H]1[C@@H]3CC4=C(C(=O)C(OC)=C(C)C4=O)[C@H](CNC(=O)/C=C/c4ccnc5ccccc45)N3[C@@H](C#N)[C@H](C2)N1C | 0.0057 | 0.0357 | 0.0182 | 0.0171 | 0.0115 | 0.0175 | 0.00223 | 0.00833 | 0.0234 | 0.0182 |  |
| COC1=C(C)C(=O)C2=C(C1=O)[C@@H]1[C@@H]3CC4=C(C(=O)C(OC)=C(C)C4=O)[C@H](CNC(=O)c4cccs4)N3[C@@H](C#N)[C@H](C2)N1C | 0.0175 | > 0.1 | > 0.1 | 0.00419 | 0.0373 | 0.0274 | 0.0452 | 0.0174 | 0.0272 | 0.0164 |  |
| COC1=C(C)C(=O)C2=C(C1=O)[C@@H]1[C@@H]3CC4=C(C(=O)C(OC)=C(C)C4=O)[C@H](CNC(=O)C(C)=O)N3[C@@H](C#N)[C@H](C2)N1C [SAFRAMYCIN A] | 0.00223 | 0.0404 | 0.00249 | 0.011 | 0.00956 | 0.00275 | 0.00639 | 0.00106 | 0.00254 | 0.00183 |  |
| COC1=C(C)C(=O)C2=C(C1=O)[C@@H]1[C@@H]3CC4=C(C(=O)C(OC)=C(C)C4=O)[C@H](CNC(=O)c4cc(Br)ccc4Cl)N3[C@@H](C#N)[C@H](C2)N1C |  |  | > 0.1 | 0.0663 |  |  |  | > 0.1 |  |  |  |
| COC1=C(C)C(=O)C2=C(C1=O)[C@@H]1[C@@H]3CC4=C(C(=O)C(OC)=C(C)C4=O)[C@H](CNC(=O)c4cc(OC)c(OC)c(OC)c4)N3[C@@H](C#N)[C@H](C2)N1C | 0.00127 | 0.0187 | 0.0149 | 0.00419 | 0.00363 | 0.00367 | 0.00113 | 0.00252 | 0.00338 | 0.00303 |  |
| COc1c(C)cc2c(c1O)[C@@H]1[C@@H]3Cc4cc(C)c(OC)c(O)c4[C@H](CNC(=O)OC(C)(C)C)N3[C@@H](C#N)[C@H](C2)N1C | 0.0314 | 0.0268 | 0.0638 | 0.0321 | 0.0237 | 0.045 | 0.0173 | 0.0927 | 0.0195 | 0.0324 |  |
| COC1=C(C)C(=O)C2=C(C1=O)[C@@H]1[C@@H]3CC4=C(C(=O)C(OC)=C(C)C4=O)[C@H](CNC(=O)c4ccc5ccccc5n4)N3[C@@H](C#N)[C@H](C2)N1C | 0.0166 | 0.0653 | 0.0434 | 0.0215 | 0.0699 | 0.0296 | 0.0149 | 0.00951 | 0.0198 | 0.0237 |  |
| COC1=C(C)C(=O)C2=C(C1=O)[C@@H]1[C@@H]3CC4=C(C(=O)C(OC)=C(C)C4=O)[C@H](CNC(=O)c4ccco4)N3[C@@H](C#N)[C@H](C2)N1C | 0.00355 | 0.00095 | 0.0124 | 0.016 | 0.00301 | 0.00387 | 0.0153 | 0.00258 | 0.00168 | 0.00122 |  |
| COC1=C(C)C(=O)C2=C(C1=O)[C@@H]1[C@@H]3CC4=C(C(=O)C(OC)=C(C)C4=O)[C@H](CNC(=O)c4cnccn4)N3[C@@H](C#N)[C@H](C2)N1C | 0.00185 | 0.00189 | 0.0105 | 0.0121 | 0.00161 | 0.00717 | 0.00306 | 0.00189 | 0.00153 | 0.00187 | 20 |
